Data from the supplement of paper PMC10307832.

What was measured:
Assay in all cases: relative viability (nuclei count vs DMSO), 5 days (fraction); higher = more cells survive
Carfilzomib + Decitabine = compound: CC(C)C[C@H](NC(=O)[C@H](CCc1ccccc1)NC(=O)CN1CCOCC1)C(=O)N[C@@H](Cc1ccccc1)C(=O)N[C@@H](CC(C)C)C(=O)[C@@]1(C)CO1 [Carfilzomib] + Nc1ncn([C@H]2C[C@H](O)[C@@H](CO)O2)c(=O)n1 [Decitabine] (partner 2 µM)
In short: (§1)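 Five library-drug doses in √10 steps were combined with a fixed anchor-drug dose, or a single drug was given alone, by pin tool to lung cancer cell lines in 1536-well plates the day after seeding. Nuclei were stained and counted after 5 days. Relative viability is the nuclei count in treated wells over that in vehicle wells, taken as the median of duplicate plates.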

Crizotinib + Trametinib = compound: C[C@@H](Oc1cc(-c2cnn(C3CCNCC3)c2)cnc1N)c1c(Cl)ccc(F)c1Cl [Crizotinib] + CC(=O)Nc1cccc(-n2c(=O)n(C3CC3)c(=O)c3c(Nc4ccc(I)cc4F)n(C)c(=O)c(C)c32)c1 [Trametinib] (partner 0.02 µM)
In short: as §1

Crizotinib + Palbociclib = compound: C[C@@H](Oc1cc(-c2cnn(C3CCNCC3)c2)cnc1N)c1c(Cl)ccc(F)c1Cl [Crizotinib] + CC(=O)c1c(C)c2cnc(Nc3ccc(N4CCNCC4)cn3)nc2n(C2CCCC2)c1=O [Palbociclib] (partner 0.5 µM)
In short: as §1

Olaparib + Trametinib = compound: O=C(c1cc(Cc2n[nH]c(=O)c3ccccc23)ccc1F)N1CCN(C(=O)C2CC2)CC1 [Olaparib] + CC(=O)Nc1cccc(-n2c(=O)n(C3CC3)c(=O)c3c(Nc4ccc(I)cc4F)n(C)c(=O)c(C)c32)c1 [Trametinib] (partner 0.02 µM)
In short: as §1

Cell Line	relative viability (Carfilzomib + Decitabine; first compound 0.001 µM)	relative viability (Carfilzomib + Decitabine; first compound 0.003162 µM)	relative viability (Carfilzomib + Decitabine; first compound 0.01 µM)	relative viability (Carfilzomib + Decitabine; first compound 0.03162 µM)	relative viability (Carfilzomib + Decitabine; first compound 0.1 µM)	relative viability (Crizotinib + Trametinib; first compound 0.01 µM)	relative viability (Crizotinib + Trametinib; first compound 0.03162 µM)	relative viability (Crizotinib + Trametinib; first compound 0.1 µM)	relative viability (Crizotinib + Trametinib; first compound 0.3162 µM)	relative viability (Crizotinib + Trametinib; first compound 1 µM)	relative viability (Crizotinib + Palbociclib; first compound 0.01 µM)	relative viability (Crizotinib + Palbociclib; first compound 0.03162 µM)	relative viability (Crizotinib + Palbociclib; first compound 0.1 µM)	relative viability (Crizotinib + Palbociclib; first compound 0.3162 µM)	relative viability (Crizotinib + Palbociclib; first compound 1 µM)	relative viability (Olaparib + Trametinib; first compound 0.08 µM)	relative viability (Olaparib + Trametinib; first compound 0.253 µM)	relative viability (Olaparib + Trametinib; first compound 2.53 µM)	relative viability (Olaparib + Trametinib; first compound 8 µM)
201T	0.818	0.901	0.798	0.873	0.795	0.678	0.706	0.747	0.72	0.754	0.336	0.375	0.329	0.384	0.344	0.682	0.695	0.726	0.668
A549	0.167	0.292	0.109	0.254	0.0302														
A-427	0.587	0.565	0.591	0.527	0.178	0.717	0.771	0.724		0.78	0.486	0.53	0.496		0.558	0.782	0.741	0.719	0.601
ABC-1	1.24	1.34	0.539	0.274	0.285						0.811	0.838	0.517		0.711				
BEN	0.603	0.861	0.643	0.577	0.26		0.982	0.948	1.15	1.17	0.528	0.504	0.464	0.47	0.489	1.11	0.991	1.07	1.1
CAL-12T						0.268	0.413	0.32	0.393	0.374	0.369	0.577	0.341	0.295	0.369	0.351	0.292	0.417	0.305
COR-L23	0.383	0.443	0.386	0.0979	0.0901	0.567	0.605	0.563	0.525	0.633	0.289	0.269	0.298	0.256	0.328	0.661	0.642	0.498	0.451
COR-L 105	0.621	0.752	0.751	0.466	0.34	0.426	0.463	0.413	0.41	0.43	0.4	0.427	0.397	0.388	0.409	0.472	0.446	0.425	0.428
ChaGo-K-1	0.476	0.55	0.494	0.322	0.174	0.867	0.92	0.876	0.825	0.915	0.917	0.92	0.971	0.908	0.98	0.949	0.792	0.819	0.735
EKVX	0.371	0.36	0.335		0.128	0.342	0.367	0.347	0.298	0.374	0.312	0.411	0.38	0.392	0.423	0.425	0.427	0.313	0.362
EMC-BAC-2	1	1.02	0.954	0.911	0.296	0.865	0.803	0.914		0.893	0.507	0.509	0.519		0.479	0.971	0.844	0.932	0.806
EPLC-272H	0.353	0.391	0.379	0.174	0.0719	0.277	0.281	0.299		0.307	0.334	0.298	0.31		0.309	0.363	0.272	0.306	0.287
H3255	0.645	0.704	0.684		0.185	0.557	0.666	0.602	0.652	0.479	0.342	0.331	0.327	0.28	0.325	0.652	0.633	0.583	0.567
HARA	0.669	0.747	0.704	0.192	0.119	0.646	0.525	0.958	0.976	0.564	0.273	0.295	0.239	0.249	0.207	0.882	0.66	0.732	0.632
HCC-15	0.606	0.725	0.637	0.424	0.127	0.396	0.346	0.38			0.665	0.719	0.7	0.655	0.627	0.422	0.387	0.39	0.353
HCC-44	0.939	0.893	0.917	0.973	0.639	0.933	1.04	1.03	1.15	1.04	0.939	0.964	1.01	0.94	0.969	1.04	0.949	1.01	0.996
HCC-78	0.622	0.766	0.672	0.554	0.302	0.631	0.873	0.723	0.706	0.909	0.431	0.537	0.545		0.513	0.861	0.647	0.716	0.707
HCC-366	0.32	0.412	0.352	0.447	0.086	0.342	0.388	0.367		0.322	0.381	0.429	0.347		0.449	0.311	0.311	0.268	0.214
HCC-827	0.287	0.371	0.31	0.269	0.133	0.462	0.567	0.53	0.508	0.552	0.455	0.492	0.498	0.463	0.413	0.52	0.508	0.498	0.478
